Assay results as given in patent publication US6559148B1, “Use of P2Y purinoreceptor antagonist for the treatment of ischemia reperfusion” (Consiglio Nazionale delle Ricerche, priority 1998, dated 2003).
“Also recorded” adds a separate entry of the source.

Tested on: Wistar albino adult male rats
Experiment: Transient global cerebral ischemia by 4-vessel occlusion (4-VO, Pulsinelli and Brierley method) for 30 minutes
Assay type: in vivo, rat
Settings: 30 minutes global ischemia
Description: By way of non-limiting example of the present invention, some experimental examples are given herein that show the effectiveness of the compounds modulating P2 purinoceptors, and in particular Basilen Blue, in the reduction of mortality induced by global ischemia. In particular, for such analysis Wistar albino adult male rats weighting 220-250 g have been utilized. Basilen Blue was diluted in saline solution. After a 12 hour fast, transient cerebral ischemia was induced in the rats by the Pulsinelli and Brierley method (Stroke, 10:267-272, 1979). The animals were anesthetized with 2% halotane in a mixture of 30% O2 and 70% N2O. Both vertebral arteries were electrically cauterized and thin claps from Teflon were loosely and reversibly placed around the common carotid arteries. The animals were allowed to recover from anesthesia and kept one per cage, under standard conditions of humidity, temperature and light. The following day, the rats were submitted to a mild anesthesia always with halothane and the claps previously placed around the common carotid arteries were tightened to produce the occlusion of 4 vessels (4-VO) for 30 minutes (in 24 animals). The absence of locomotion activity, the loss of corneal and righting reflexes and the presence of paralytic mydriasis, which took place after 1-2 minutes from the carotid occlusion, were the criteria according to which the animals were considered ischemic and included in the study. The rectal temperature was monitored during the following recovery period and kept constant at a temperature between 36.5 and 37° C. until the rats recovered the locomotion activity and the thermal homeostasis. […]
Wistar albino male rats, having a mean weight of 220-250 g, treated with saline solution (controls) or Basilen Blue were submitted for 30 minutes to global cerebral ischemia, the whole as described previously. The mortality was then monitored for two days following the carotid occlusion in a total of 24 animals (11 controls and 13 treated with Basilen Blue). […]

With Basilen Blue E-3G (Reactive Blue 2) the “neuronal damage to the hippocampus (neurons lost in CA1-CA2 sectors)” value (2 x 4,5 mg/kg i.p., vs saline controls) was “less severe”, the “mortality index compared to control group” value (2 x 4,5 mg/kg i.p., vs saline controls, p>0,05 as printed) was “significantly lower; also recorded: reduces the mortality” and the “animals died (mortality) within two days from the carotid occlusion” value (Basilen Blue 4,5 mg/kg i.p. 15 minutes before and 3 hours after carotid occlusion, control group 5 out of 11 died) was 3 out of the 13.
